Assay results: patent publication US20250313572A1, “MACROCYCLIC MCL-1 INHIBITORS AND METHODS OF USE” (AbbVie Inc., priority 2017, published 2025)
Like-named read-outs stand apart in the source and are kept apart here.

Experiments:
[1] = system: AMO-1 human multiple myeloma tumor cell line; experiment: AMO-1 cell viability assay (CellTiter-Glo, 24 hours); type: cell-based; details: Homo sapiens, AMO1, 24 h, read-out: AMO-1 Viability IC50 (μM, 10% FBS), 10% FBS, 24 hours of compound treatment
Description: Each concentration was tested in duplicate at least 3 independent times. A luminescent signal proportional to the number of viable cells following 24 hours of compound treatment was determined using the CellTiter-Glo® Luminescent Cell Viability Assay according to the manufacturer's recommendations (Promega Corp., Madison, WI). The plates were read in a Perkin Elmer Envision using a Luminescence protocol. To generate dose response curves the data is normalized to percent viability by setting the averages of the staurosporine (10 μM) and DMSO only control wells to 0% and 100% viability respectively.

[2] = system: NCI-H929 human multiple myeloma tumor cell line; experiment: NCI-H929 cell viability assay (CellTiter-Glo, 24 hours); type: cell-based; details: Homo sapiens, NCI-H929, 24 h, read-out: H929 Viability IC50 (μM, 10% FBS), 10% FBS, 24 hours of compound treatment
GST-MCL-1 = GST-MCL-1 (Homo sapiens, UniProt Q07820); experiment: TR-FRET MCL-1 binding assay (competition with probe F-Bak)
Sequence of GST-MCL-1 (Q07820 whole entry): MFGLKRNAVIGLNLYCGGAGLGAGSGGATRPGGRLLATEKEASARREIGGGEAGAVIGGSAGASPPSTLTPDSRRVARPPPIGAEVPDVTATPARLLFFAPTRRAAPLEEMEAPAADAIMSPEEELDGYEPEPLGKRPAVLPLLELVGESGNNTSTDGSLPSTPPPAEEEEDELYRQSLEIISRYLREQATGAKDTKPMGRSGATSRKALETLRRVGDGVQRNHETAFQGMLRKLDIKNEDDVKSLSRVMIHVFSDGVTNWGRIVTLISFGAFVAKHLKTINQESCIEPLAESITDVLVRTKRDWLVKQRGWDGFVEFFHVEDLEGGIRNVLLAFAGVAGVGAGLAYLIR
How it was run: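 Test compounds, 11 three-fold dilutions from 25 μM final, incubated 2 hours at room temperature with GST-MCL-1, F-Bak probe and Tb-anti-GST antibody. TR-FRET read at 340/35 nm excitation with 520/525 and 495/510 nm emission. Run without human serum and with 10% HS.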

[3] = MCL-1 Binding Ki (nM, 10% HS), in the presence of 10% HS (human serum)
[4] = without HS, read-out: MCL-1 Binding Ki

| SMILES | IC50 [1] [µM] | IC50 [2] [µM] | Ki (GST-MCL-1; [3]) [nM] | Ki (GST-MCL-1; [4]) [nM] |
| --- | --- | --- | --- | --- |
| Cc1c(Cl)c2c(Cl)c(C)c1-c1c(-c3ccc(F)cc3)sc3ncnc(c13)O[C@@H](C(=O)O)Cc1cc(ccc1OCc1ccnc(C3=CCS(=O)(=O)CC3)n1)OC[C@@H](CN1CCN(C)CC1)O2 [Example 34, (7R,16R)-19,23-dichloro-10-{[2-(1,1-dioxo-1,2,3,6-tetrahydro-1λ^6-thiopyran-4-yl)pyrimidin-4-yl]methoxy}-1-(4-fluorophenyl)-20,22-dimethyl-16-[(4-methylpiperazin-1-yl)methyl]-7,8,15,16-tetrahydro-18,21-etheno-13,9-(metheno)-6,14,17-trioxa-2-thia-3,5-diazacyclononadeca[1,2,3-cd]indene-7-carboxylic Acid] | 0.00123 | 0.00242 | 0.276 | 0.016 |
| Cc1c(Cl)c2c(Cl)c(C)c1-c1c(-c3ccc(F)cc3)sc3ncnc(c13)O[C@@H](C(=O)O)Cc1cc(ccc1OCc1ccnc(N3C[C@@H]4[C@H](C3)[C@H]4C(=O)O)n1)OC[C@@H](CN1CCN(C)CC1)O2 [Example 36, (7R,16R)-10-({2-[(1R,5S,6r)-6-carboxy-3-azabicyclo[3,1,0]hexan-3-yl]pyrimidin-4-yl}methoxy)-19,23-dichloro-1-(4-fluorophenyl)-20,22-dimethyl-16-[(4-methylpiperazin-1-yl)methyl]-7,8,15,16-tetrahydro-18,21-etheno-13,9-(metheno)-6,14,17-trioxa-2-thia-3,5-diazacyclononadeca[1,2,3-cd]indene-7-carboxylic Acid] | 0.32 | 0.653 | 1.16 | 0.144 |
| Cc1c(Cl)c2c(Cl)c(C)c1-c1c(-c3ccc(F)cc3)sc3ncnc(c13)O[C@@H](C(=O)O)Cc1cc(ccc1OCc1ccnc([C@@]3(O)CCCC[C@@H]3O)n1)OC[C@@H](CN1CCN(C)CC1)O2 [Example 38, (7R,16R)-19,23-dichloro-10-({2-[(1S,2S)-1,2-dihydroxycyclohexyl]pyrimidin-4-yl}methoxy)-1-(4-fluorophenyl)-20,22-dimethyl-16-[(4-methylpiperazin-1-yl)methyl]-7,8,15,16-tetrahydro-18,21-etheno-9,13-(metheno)-6,14,17-trioxa-2-thia-3,5-diazacyclononadeca[1,2,3-cd]indene-7-carboxylic Acid] | 0.00236 | 0.00577 | 0.416 | 0.106 |
| Cc1c(Cl)c2c(Cl)c(C)c1-c1c(-c3ccc(F)cc3)sc3ncnc(c13)O[C@@H](C(=O)O)Cc1cc(ccc1OCc1ccnc([C@]3(O)CCCC[C@H]3O)n1)OC[C@@H](CN1CCN(C)CC1)O2 [Example 39, (7R,16R)-19,23-dichloro-10-({2-[(1R,2R)-1,2-dihydroxycyclohexyl]pyrimidin-4-yl}methoxy)-1-(4-fluorophenyl)-20,22-dimethyl-16-[(4-methylpiperazin-1-yl)methyl]-7,8,15,16-tetrahydro-18,21-etheno-9,13-(metheno)-6,14,17-trioxa-2-thia-3,5-diazacyclononadeca[1,2,3-cd]indene-7-carboxylic Acid] | 0.00119 | 0.00353 | 0.193 | 0.042 |
| Cc1c(Cl)c2c(Cl)c(C)c1-c1c(-c3ccc(F)cc3)sc3ncnc(c13)O[C@@H](C(=O)O)Cc1cc(ccc1OCc1ccnc(C3CCS(=O)(=O)CC3)n1)OC[C@@H](CN1CCN(C)CC1)O2 [Example 40, (7R,16R)-19,23-dichloro-10-{[2-(1,1-dioxo-1λ^6-thian-4-yl)pyrimidin-4-yl]methoxy}-1-(4-fluorophenyl)-20,22-dimethyl-16-[(4-methylpiperazin-1-yl)methyl]-7,8,15,16-tetrahydro-18,21-etheno-13,9-(metheno)-6,14,17-trioxa-2-thia-3,5-diazacyclononadeca[1,2,3-cd]indene-7-carboxylic Acid] | 0.003 | 0.00474 | 0.085 | 0.018 |
| Cc1c(Cl)c2c(Cl)c(C)c1-c1c(-c3ccc(F)cc3)sc3ncnc(c13)O[C@@H](C(=O)O)Cc1cc(ccc1OCc1ccnc(N3CCC(C)(CC(=O)O)CC3)n1)OC[C@@H](CN1CCN(C)CC1)O2 [Example 41, (7R,16R)-10-({2-[4-(carboxymethyl)-4-methylpiperidin-1-yl]pyrimidin-4-yl}methoxy)-19,23-dichloro-1-(4-fluorophenyl)-20,22-dimethyl-16-[(4-methylpiperazin-1-yl)methyl]-7,8,15,16-tetrahydro-18,21-etheno-13,9-(metheno)-6,14,17-trioxa-2-thia-3,5-diazacyclononadeca[1,2,3-cd]indene-7-carboxylic Acid] | 0.0159 | 0.019 | 1.05 | 0.078 |
| Cc1c(Cl)c2c(Cl)c(C)c1-c1c(-c3ccc(F)cc3)sc3ncnc(c13)O[C@@H](C(=O)O)Cc1cc(ccc1OCc1ccnc(N3CC4(COC4)C3)n1)OC[C@@H](CN1CCN(C)CC1)O2 [Example 42, (7R,16R)-19,23-dichloro-1-(4-fluorophenyl)-20,22-dimethyl-16-[(4-methylpiperazin-1-yl)methyl]-10-{[2-(2-oxa-6-azaspiro[3.3]heptan-6-yl)pyrimidin-4-yl]methoxy}-7,8,15,16-tetrahydro-18,21-etheno-9,13-(metheno)-6,14,17-trioxa-2-thia-3,5-diazacyclononadeca[1,2,3-cd]indene-7-carboxylic Acid] | 0.0011 | 0.00314 | 0.747 | 0.085 |
| COCCOCCOCCOCCOCCOCCOCCC(=O)N1CCC[C@@H]1c1nccc(COc2ccc3cc2C[C@H](C(=O)O)Oc2ncnc4sc(-c5ccc(F)cc5)c(c24)-c2ccc(c(Cl)c2C)O[C@H](CN2CCN(C)CC2)CO3)n1 [Example 43, (7R,16R)-19-chloro-1-(4-fluorophenyl)-20-methyl-16-[(4-methylpiperazin-1-yl)methyl]-10-({2-[(2R)-1-(23-oxo-2,5,8,11,14,17,20-heptaoxatricosan-23-yl)pyrrolidin-2-yl]pyrimidin-4-yl}methoxy)-7,8,15,16-tetrahydro-18,21-etheno-13,9-(metheno)-6,14,17-trioxa-2-thia-3,5-diazacyclononadeca[1,2,3-cd]indene-7-carboxylic Acid] | > 1 | > 1 | 39.4 | 41.1 |
| COCCOCCOCCOCCOCCOCCOCCOCCOCCOCCOCCOCCOCC1(c2nccc(COc3ccc4cc3C[C@H](C(=O)O)Oc3ncnc5sc(-c6ccc(F)cc6)c(c35)-c3c(C)c(Cl)c(c(Cl)c3C)O[C@H](CN3CCN(C)CC3)CO4)n2)CCC1 [Example 44, (7R,16R)-19,23-dichloro-1-(4-fluorophenyl)-20,22-dimethyl-16-[(4-methylpiperazin-1-yl)methyl]-10-({2-[1-(2,5,8,11,14,17,20,23,26,29,32,35,38-tridecaoxanonatriacontan-1-yl)cyclobutyl]pyrimidin-4-yl}methoxy)-7,8,15,16-tetrahydro-18,21-etheno-13,9-(metheno)-6,14,17-trioxa-2-thia-3,5-diazacyclononadeca[1,2,3-cd]indene-7-carboxylic Acid] | 0.0211 | 0.0179 | 0.224 | 0.124 |
| COCCOCCOCCOCC1(c2nccc(COc3ccc4cc3C[C@H](C(=O)O)Oc3ncnc5sc(-c6ccc(F)cc6)c(c35)-c3c(C)c(Cl)c(c(Cl)c3C)O[C@H](CN3CCN(C)CC3)CO4)n2)CCC1 [Example 45, (7R,16R)-19,23-dichloro-1-(4-fluorophenyl)-20,22-dimethyl-16-[(4-methylpiperazin-1-yl)methyl]-10-({2-[1-(2,5,8,11-tetraoxadodecan-1-yl)cyclobutyl]pyrimidin-4-yl}methoxy)-7,8,15,16-tetrahydro-18,21-etheno-13,9-(metheno)-6,14,17-trioxa-2-thia-3,5-diazacyclononadeca[1,2,3-cd]indene-7-carboxylic Acid] | 0.000461 | 0.000598 | 0.343 | 0.094 |
| COCCOCCOCCOc1ccc(-c2nccc(COc3ccc4cc3C[C@H](C(=O)O)Oc3ncnc5sc(-c6ccc(F)cc6)c(c35)-c3c(C)c(Cl)c(c(Cl)c3C)O[C@H](CN3CCN(C)CC3)CO4)n2)cn1 [Example 46, (7R,16R)-19,23-dichloro-1-(4-fluorophenyl)-10-{[2-(6-{2-[2-(2-methoxyethoxy)ethoxy]ethoxy}pyridin-3-yl)pyrimidin-4-yl]methoxy}-20,22-dimethyl-16-[(4-methylpiperazin-1-yl)methyl]-7,8,15,16-tetrahydro-18,21-etheno-13,9-(metheno)-6,14,17-trioxa-2-thia-3,5-diazacyclononadeca[1,2,3-cd]indene-7-carboxylic Acid] | 0.00027 | 0.000388 | 1.08 | 1.02 |
| COCCOCCOCCOCCOCCOCCOCCOCCOCCOCCOCCNC(=O)c1ccc(-c2nccc(COc3ccc4cc3C[C@H](C(=O)O)Oc3ncnc5sc(-c6ccc(F)cc6)c(c35)-c3c(C)c(Cl)c(c(Cl)c3C)O[C@H](CN3CCN(C)CC3)CO4)n2)cc1 [Example 47, (7R,16R)-19,23-dichloro-1-(4-fluorophenyl)-20,22-dimethyl-16-[(4-methylpiperazin-1-yl)methyl]-10-[(2-{4-[(2,5,8,11,14,17,20,23,26,29,32-undecaoxatetratriacontan-34-yl)carbamoyl]phenyl}pyrimidin-4-yl)methoxy]-7,8,15,6-tetrahydro-18,21-etheno-13,9-(metheno)-6,14,17-trioxa-2-thia-3,5-diazacyclononadeca[1,2,3-cd]indene-7-carboxylic Acid] | 0.0182 | 0.0205 | 3.12 | 0.018 |
